# Data from ChEMBL document CHEMBL1125630, “Positional effects of sulfation in hirudin and hirudin PA related anticoagulant peptides” (J Med Chem, 1991).
# Experiment: In vitro inhibition fibrin clot formation after addition of thrombin.
# Format: functional, Homo sapiens
row,IC50,Compound
1,120 nM,CC[C@H](C)[C@H](NC(=O)[C@@H]1CCCN1C(=O)C(CCC(=O)O)NC(=O)[C@H](Cc1ccc(O)cc1)NC(=O)CCC(=O)O)C(=O)N1CCC[C@H]1C(=O)NC(CCC(=O)O)C(=O)NC(CCC(=O)O)C(=O)N[C@@H](Cc1ccc(NS(=O)(=O)O)cc1)C(=O)N[C@@H](CC(C)C)C(=O)NC(CCC(=O)O)C(=O)O (stereo in doubt)
2,1200 nM,CC[C@H](C)[C@H](NC(=O)[C@@H]1CCCN1C(=O)C(CCC(=O)O)NC(=O)[C@H](Cc1ccccc1)NC(=O)CCC(=O)O)C(=O)N1CCC[C@H]1C(=O)NC(CCC(=O)O)C(=O)NC(CCC(=O)O)C(=O)N[C@@H](C)C(=O)N[C@@H](Cc1ccc(O)cc1)C(=O)NC(CCC(=O)O)C(=O)O (stereo in doubt)
3,2900 nM,CC[C@H](C)[C@H](NC(=O)[C@@H]1CCCN1C(=O)C(CCC(=O)O)NC(=O)[C@H](Cc1ccc(O)cc1)NC(=O)CCC(=O)O)C(=O)N1CCC[C@H]1C(=O)NC(CCC(=O)O)C(=O)NC(CCC(=O)O)C(=O)N[C@@H](C)C(=O)N[C@@H](Cc1ccc(N)cc1)C(=O)NC(CCC(=O)O)C(=O)O (stereo in doubt)
4,380 nM,CC[C@H](C)[C@H](NC(=O)[C@@H]1CCCN1C(=O)C(CCC(=O)O)NC(=O)[C@H](Cc1ccc(O)cc1)NC(=O)CCC(=O)O)C(=O)N1CCC[C@H]1C(=O)NC(CCC(=O)O)C(=O)NC(CCC(=O)O)C(=O)N[C@@H](Cc1ccc(N)cc1)C(=O)N[C@@H](CC(C)C)C(=O)NC(CCC(=O)O)C(=O)O (stereo in doubt)
5,87 nM,CC[C@H](C)[C@H](NC(=O)[C@@H]1CCCN1C(=O)C(CCC(=O)O)NC(=O)[C@H](Cc1ccccc1)NC(=O)CCC(=O)O)C(=O)N1CCC[C@H]1C(=O)NC(CCC(=O)O)C(=O)NC(CCC(=O)O)C(=O)N[C@@H](Cc1ccc(OS(=O)(=O)O)cc1)C(=O)N[C@@H](CC(C)C)C(=O)NC(CCC(=O)O)C(=O)O (stereo in doubt)
6,2500 nM,CC[C@H](C)[C@H](NC(=O)[C@@H]1CCCN1C(=O)C(CCC(=O)O)NC(=O)[C@H](Cc1ccc(O)cc1)NC(=O)CCC(=O)O)C(=O)N1CCC[C@H]1C(=O)NC(CCC(=O)O)C(=O)NC(CCC(=O)O)C(=O)N[C@@H](C)C(=O)N[C@@H](Cc1ccc(NS(=O)(=O)O)cc1)C(=O)NC(CCC(=O)O)C(=O)O (stereo in doubt)
7,710 nM,CC[C@H](C)[C@H](NC(=O)[C@@H]1CCCN1C(=O)C(CCC(=O)O)NC(=O)[C@H](Cc1ccc(O)cc1)NC(=O)CCC(=O)O)C(=O)N1CCC[C@H]1C(=O)NC(CCC(=O)O)C(=O)NC(CCC(=O)O)C(=O)N[C@@H](C)C(=O)N[C@@H](Cc1ccc([N+](=O)[O-])cc1)C(=O)NC(CCC(=O)O)C(=O)O (stereo in doubt)
8,1600 nM,CC[C@H](C)[C@H](NC(=O)[C@@H]1CCCN1C(=O)C(CCC(=O)O)NC(=O)[C@H](Cc1ccccc1)NC(=O)CCC(=O)O)C(=O)N1CCC[C@H]1C(=O)NC(CCC(=O)O)C(=O)NC(CCC(=O)O)C(=O)N[C@@H](Cc1ccc(O)cc1)C(=O)N[C@@H](CC(C)C)C(=O)NC(CCC(=O)O)C(=O)O (stereo in doubt)
9,2800 nM,CC[C@H](C)[C@H](NC(=O)[C@@H]1CCCN1C(=O)C(CCC(=O)O)NC(=O)[C@H](Cc1ccc(O)cc1)NC(=O)CCC(=O)O)C(=O)N1CCC[C@H]1C(=O)NC(CCC(=O)O)C(=O)NC(CCC(=O)O)C(=O)N[C@@H](Cc1ccc([N+](=O)[O-])cc1)C(=O)N[C@@H](CC(C)C)C(=O)NC(CCC(=O)O)C(=O)O (stereo in doubt)
10,300 nM,CC[C@H](C)[C@H](NC(=O)[C@@H]1CCCN1C(=O)C(CCC(=O)O)NC(=O)[C@H](Cc1ccccc1)NC(=O)CCC(=O)O)C(=O)N1CCC[C@H]1C(=O)NC(CCC(=O)O)C(=O)NC(CCC(=O)O)C(=O)N[C@@H](C)C(=O)N[C@@H](Cc1ccc(OS(=O)(=O)O)cc1)C(=O)NC(CCC(=O)O)C(=O)O (stereo in doubt)
11,2700 nM,H-GDFEPIPEDAYDE-OH
